Experimental data: paper PMC7344659, “Bioactivity of Spongian Diterpenoid Scaffolds from the Antarctic Sponge Dendrilla antarctica” (Marine Drugs, 2020)
pIC50: −log10 of the molar value. Read-outs that look alike come from different tables or passages of the source.

How the values were obtained:
MRSA biofilm = MRSA biofilm eradication assay; type: cell-based, methicillin-resistant Staphylococcus aureus; conditions: for inhibition at 25 µg/mL / inhibition at 50 µg/mL / inhibition at 100 µg/mL: Staphylococcus aureus, MRSA; for inhibition at 50 µg/mL: 50 μg/mL; for inhibition at 100 µg/mL: 100 μg/mL; for Pathogen Activity, MRSA Biofilm: Table 3, no unit printed there (58 μM); for concentration at which activity against MRSA biofilm was exhibited: eradication level not given
Method: The MRSA biofilm assay was carried out at concentrations of 100, 50, and 25 µg/mL for each compound, and activities representing 50% and 90% eradication are reported.
The MRSA biofilm assay was conducted as previously reported.

[1] = system: primary human hepatocytes; experiment: Cytotoxicity towards uninfected primary human hepatocytes; type: cell-based; conditions: for inhibition at 5 µg/mL: Hepatocyte, 5 μg/mL, uninfected primary human hepatocytes, % (Standard Deviation), n = 3, read-out: Plasmodium falciparum Inhibition at 5 μg/mL Uninfected PHHs; for cytotoxicity towards uninfected primary human hepatocytes (in words): 5 µg/mL screen
Method: (§1) The full suite of Dendrilla antarctica-derived compounds, with the exception of darwinolide (1) and dendrillin D (12) owing to mass limitations, were tested against Leishmania donovani infected macrophages, liver-stage sporozoites in primary human hepatocytes, and against MRSA biofilm. Cytotoxicity was evaluated using the mammalian J774A.1 cell line in L. donovani-active compounds, while primary human hepatocytes were evaluated for malaria-active compounds.
(§2) For the Plasmodium falciparum infected liver cells, screening was conducted at a fixed concentration of 5 µg/mL for each compound, and activities representing 60% inhibition and 100% inhibition are reported in comparison with the positive control primaquine. […] Aplysulphurin (2) at ≤13 μM was also active at the highest level.
(§3) The liver-stage Plasmodium falciparum assay was conducted as previously reported.

Leishmania donovani [2] = experiment: Leishmania donovani infected macrophage assay; type: cell-based; conditions: for pIC50: single point determination, read-out: Leishmania donovani IC50 Infected Macrophage; for IC50: Macrophage, unit not given (μM in Table 2), read-out: Pathogen Activity, Leishmania donovani
Method: as §1
(§4) The results from the Leishmania donovani assay (Table 2) indicate activity commensurate with the positive control and current standard of care, miltefosine (2.9 µM) is observed in aplysulphurin (2, 3.1 μM), tetrahydroaplysulphurin-1 (4, 3.5 μM), dendrillin B (10, 3.5 μM), 8-ketodihydrogracilin (13, 4.5 μM), and triol 15 (4.5 μM).
(§5) The Leishmania donovani cell line infected macrophage assay and cytotoxicity screen were conducted as previously described.

Plasmodium falciparum [3] = experiment: Liver-stage Plasmodium falciparum assay in primary human hepatocytes; type: cell-based; conditions: for inhibition at 5 µg/mL: Plasmodium falciparum, Hepatocyte, 5 μg/mL, infected primary human hepatocytes, % (Standard Deviation), n = 3, read-out: Plasmodium falciparum Inhibition at 5 μg/mL Infected PHHs; for concentration with 100% inhibition against P. falciparum infected liver cells / concentration with modest activity (60% inhibition) against P. falciparum infected liver cells: screen at fixed 5 µg/mL; for concentration with 100% inhibition against P. falciparum infected liver cells: 100% inhibition level (highest level); for concentration with modest activity (60% inhibition) against P. falciparum infected liver cells: 60% inhibition level
Method: as §1, §2, §3

[4] = J774A.1-cell cytotoxicity assay (uninfected macrophage); type: cell-based; conditions: mouse, J774A.1 macrophage cells (uninfected); Table 3; unit not given (μM in Table 2); read-out: J774 Cytotoxiciy
Method: as §1, §5

J774A.1 macrophages [5] = experiment: as above; type: cell-based; conditions: Mus musculus, J774.A1; cytotoxicity, uninfected J774A.1 macrophages; single point determination; read-out: Leishmania donovani IC50 Uninfected Macrophage
Method: as §1, §5

Leishmania donovani [6] = system: Leishmania donovani; parameters: method as in PMID 32281798; conditions: ref [15], cited from earlier work; for pIC50: J774A.1 macrophages, single point determination, read-out: Leishmania donovani IC50 Infected Macrophage
J774A.1 macrophages [7] = system: J774A.1 macrophages; parameters: method as in PMID 32281798; conditions: ref [15], cited from earlier work
[8] = Leishmania donovani infected macrophage assay; type: cell-based; conditions: mouse, J774A.1 cytotoxicity / L. donovani activity; read-out: selectivity index (SI, mammalian cytotoxicity/antiprotozoal activity)
Method: as §1, §4, §5

Plasmodium falciparum [9] = experiment: Liver-stage Plasmodium falciparum assay in primary human hepatocytes; type: cell-based; conditions: Table 3; SI = J774 IC50/pathogen IC50
[10] = system: methicillin-resistant Staphylococcus aureus (MRSA) biofilm; parameters: method as in PMID 27175857; conditions: ref [17]; cited from earlier work
[11] = Leishmania donovani, J774.A1, J774A.1 macrophages
[12] = cytotoxicity, uninfected J774A.1 macrophages, single point determination, read-out: Leishmania donovani IC50 Uninfected Macrophage
[13] = Table 3, no unit printed there, same values marked as from reference in Table 2, read-out: J774 Cytotoxiciy

Structure (SMILES) | pIC50 (Leishmania donovani [2]; [11]) | inhibition at 25 µg/mL (MRSA biofilm; 25 μg/mL, % (Std. Dev.), n = 6) [%] | inhibition at 50 µg/mL (MRSA biofilm; % (Std. Dev.), n = 6) [%] | inhibition at 100 µg/mL (MRSA biofilm; % (Std. Dev.), n = 6) [%] | inhibition at 5 µg/mL [1] [%] | inhibition at 5 µg/mL (Plasmodium falciparum [3]) [%] | pIC50 (J774A.1 macrophages [5]) | also measured
C/C=C1/[C@@H]2[C@@H](OC(C)=O)O[C@@H](OC(C)=O)[C@@H]2CC[C@@H]1[C@@]1(C)CCCC(C)(C)C1 [9,11-Dihydrogracilin A (3), 9,11-dihydrogracilin A] | – | 0 | 29.1 | 12.7 | 1.1 | 0 | – | pIC50 (Leishmania donovani [6]): 5.04; pIC50 (J774A.1 macrophages [7]; [12]): 4.64
CC(=O)O[C@@H]1O[C@H]2OC(=O)[C@H](C)c3c([C@@]4(C)CCCC(C)(C)C4)ccc1c32 [Aplysulphurin (2), aplysulphurin] | – | 6.5 | 29.4 | 21.1 | 7.6 | 100 | – | pIC50 (Leishmania donovani [6]; listed as 2): > 5.00; pIC50 (Leishmania donovani [6]): 5.51; pIC50 (J774A.1 macrophages [7]; [12]): 4.92; cytotoxicity towards uninfected primary human hepatocytes (in words) [1]: no discernable cytotoxicity; concentration with 100% inhibition against P. falciparum infected liver cells (Plasmodium falciparum [3]): ≤ 13 µM
C[C@H]1C(=O)O[C@@H]2OC[C@@H]3CCC([C@@]4(C)CCCC(C)(C)C4)=C1[C@@H]32 [Cadlinolide C (8), cadlinolide C] | 4.80 | 2.6 | 35 | 85.4 | 0 | 0 | < 3.80 | –
COC(=O)C(C)c1c(C2(C)CCCC(C)(C)C2)ccc2c1C(O)OC2=O (stereo not shown) [Dendrillin B (10), dendrillin B] | – | 37 | 19.4 | 90.7 | 0 | 0 | < 3.85 | pIC50 (Leishmania donovani [2]; J774A.1 macrophages): > 5.00; IC50 (Leishmania donovani [2]; Leishmania donovani, Table 3): 3.5 µM; IC50 [4]: > 140 µM
C/C(=C1\CCCC1(C)C)[C@H]1CC[C@H]2C(=O)OC[C@H]2C1(C)C [Glaciolide (6), glaciolide] | 5.06 | 20 | 20.8 | 32.2 | 4.5 | 0 | < 3.77 | –
COC(=O)[C@H](C)c1c([C@@]2(C)CCCC(C)(C)C2)ccc2c1C(=O)OC2 [Membranolide (5), membranolide] | – | ~100 | 99.9 | 100 | 0 | 59.7 | – | MRSA Biofilm Inhibition 25 μg/mL (MRSA biofilm; 25 μg/mL, % (Std. Dev.), n = 6): 99.7 (0.1) %; Pathogen Activity, MRSA Biofilm (MRSA biofilm): 58; concentration achieving 90% eradication of MRSA biofilm (MRSA biofilm; lowest concentration tested, 25 μg/mL, in molar units): 58 µM; concentration achieving 90% eradication of MRSA biofilm (MRSA biofilm; tested at 100, 50 and 25 µg/mL, 90% eradication): 25 µg/mL; pIC50 (Leishmania donovani [6]; listed as 5): > 5.00; pIC50 (Leishmania donovani [6]): 5.01; pIC50 (J774A.1 macrophages [7]; [13]): 4.11; pIC50 (J774A.1 macrophages [7]; cytotoxicity, uninfected J774A.1 macrophages, single point determination, listed as membranolide (5), read-out: Leishmania donovani IC50 Uninfected Macrophage): 4.11; pIC50 (J774A.1 macrophages [7]; [12]): 4.11; selectivity ratio [8]: 8
CCCCCCCCCCCCCCCCOP(=O)([O-])OCC[N+](C)(C)C [Miltefosine, miltefosine, reference compound] | 5.54 | – | – | – | – | – | < 3.92 | –
COc1cc(NC(C)CCCN)c2ncccc2c1 (stereo not shown) [Primaquine, primaquine, reference compound] | – | – | – | – | 0 | 97.8 | – | –
CC(=O)OC1OC2OC(=O)C(C)C3=C(C4(C)CCCC(C)(C)C4)CCC1C32 (stereo not shown) [Tetrahydroaplysulphurin-1 (4), tetrahydroaplysulphurin-1] | – | 35 | 31.1 | 20.8 | 3 | 66.7 | – | pIC50 (Leishmania donovani [6]): 5.46; IC50 (Leishmania donovani [6]; Table 3, unit not given (μM in Table 2), read-out: Pathogen Activity, Leishmania donovani): 3.5 µM; pIC50 (J774A.1 macrophages [7]; [13]): < 3.89; pIC50 (J774A.1 macrophages [7]; [12]): < 3.89; concentration with modest activity (60% inhibition) against P. falciparum infected liver cells (Plasmodium falciparum [3]): ≤ 13 µM
C[C@@H](CO)c1c([C@@]2(C)CCCC(C)(C)C2)ccc(CO)c1CO [Triol (15)] | 5.35 | 2.6 | 12.3 | 9.3 | 2.2 | 81 | < 3.80 | cytotoxicity towards uninfected primary human hepatocytes (in words) [1]: no discernable cytotoxicity; selectivity index (SI, mammalian cytotoxicity/antiprotozoal activity) (Leishmania donovani [2]; J774A.1 cytotoxicity / L. donovani activity): ~40; pIC50 (Leishmania donovani [2]; J774A.1 macrophages): 5.38; selectivity ratio [8]: > 38; Pathogen Activity, Plasmodium falciparum (Plasmodium falciparum [3]; Table 3, no unit printed there (≤16 μM)): ≤16; inhibition of the parasite cultures (Plasmodium falciparum) (Plasmodium falciparum [3]; at low micromolar concentrations): 100%; concentration with 100% inhibition against P. falciparum infected liver cells (Plasmodium falciparum [3]): ≤ 16 µM; IC50 [4]: > 160 µM; Selectivity Index (SI), Plasmodium falciparum (Plasmodium falciparum [9]): >10
CC(=O)O[C@@H]1O[C@H]2OC(=O)C3=C(C)[C@@H]([C@@]4(C)CCCC(C)(C)C4)CC[C@@H]1[C@H]32 [darwinolide (1), darwinolide] | – | – | – | – | – | – | – | potency against MRSA biofilm relative to planktonic MRSA [10]: four times more potent against the biofilm than it was against planktonic MRSA

More lines, main results first:

pIC50 (Leishmania donovani [2]; [11]) | Structure (SMILES) | inhibition at 25 µg/mL (MRSA biofilm; 25 μg/mL, % (Std. Dev.), n = 6) [%] | inhibition at 50 µg/mL (MRSA biofilm; % (Std. Dev.), n = 6) [%] | inhibition at 100 µg/mL (MRSA biofilm; % (Std. Dev.), n = 6) [%] | inhibition at 5 µg/mL [1] [%] | inhibition at 5 µg/mL (Plasmodium falciparum [3]) [%] | pIC50 (J774A.1 macrophages [5]) | also measured
< 4.51 | CCC1=C(C=O)[C@H](C(=O)OC)CC[C@@H]1[C@@]1(C)CCCC(C)(C)C1 (relative stereo) [Dendrillin C (11), dendrillin C] | 84 | 97.8 | 99.2 | 3.4 | 1.3 | < 3.80 | Pathogen Activity, MRSA Biofilm (MRSA biofilm): 78; concentration achieving 50% eradication of MRSA biofilm (MRSA biofilm; tested at 100, 50 and 25 µg/mL, 50% eradication): 25 µg/mL; concentration at which activity against MRSA biofilm was exhibited (MRSA biofilm; tested at 100, 50 and 25 µg/mL): 50 µg/mL; IC50 [4]: > 160 µM
5.35 | CC(=O)OC1OC(OC(C)=O)C2C(=O)C(C3(C)CCCC(C)(C)C3)CCC12 (stereo not shown) [8-Ketodihydrogracilin (13), 8-ketodihydrogracilin] | 5.7 | 97.7 | 99.7 | 2.3 | 0 | 4.66 | concentration at which activity against MRSA biofilm was exhibited (MRSA biofilm; tested at 100, 50 and 25 µg/mL): 50 µg/mL; IC50 (Leishmania donovani [2]; Leishmania donovani, Table 3): 4.5 µM; Selectivity Index (SI), Leishmania donovani (Leishmania donovani [2]; Table 3, SI = J774 IC50/pathogen IC50): 5; IC50 [4]: 22 µM
4.85 | CC(=O)O[C@@H]1O[C@H](OC(C)=O)[C@@H]2[C@H]1CC[C@H](/C(C)=C1/CCCC1(C)C)C2(C)C [Compound 7] | 3.9 | 28.7 | 2.9 | 0.7 | 39.3 | 4.74 | –
5.22 | CC(=O)OC1OC(OC(C)=O)C2C1CCC(C1(C)CCCC(C)(C)C1)C21OC1C (stereo not shown) [Dendrillin A (9), dendrillin A] | 0 | 0 | 0 | 2.9 | 4.3 | 5.05 | –
5.00 | CC(=O)O[C@@H]1OC2OC(=O)[C@H](C)C34OOC([C@@]5(C)CCCC(C)(C)C5)(CC[C@@H]1C23)O4 (stereo partly shown) [Ozonide (14), tetrahydroaplysulphurin ozonide] | 17.7 | 40.6 | 99.9 | 18.6 | 61.7 | 4.77 | concentration with modest activity (60% inhibition) against P. falciparum infected liver cells (Plasmodium falciparum [3]): ≤ 15 µM
